Experimental data taken from patent US7531553B2, “Heterocyclic compounds and methods of use” (Amgen Inc., priority 2003, dated 2009).

Tested on: Human Umbilical Vein Endothelial cells
Assay: HUVEC proliferation assay (VEGF-stimulated)
Format: cell-based
Conditions: VEGF 50 ng/mL final, 72 h incubation, CyQuant dye, read-out: inhibited VEGF-stimulated HUVEC proliferation at a level (IC50)
Procedure: Human Umbilical Vein Endothelial cells are purchased from Clonetics, Inc., as cryopreserved cells harvested from a pool of donors. These cells, at passage 1, are thawed and expanded in EBM-2 complete medium, until passage 2 or 3. The cells are trypsinized, washed in DMEM+10% FBS+antibiotics, and spun at 1000 rpm for 10 min. Prior to centrifugation of the cells, a small amount is collected for a cell count. After centrifugation, the medium is discarded, and the cells are resuspended in the appropriate volume of DMEM+10% FBS+antibiotics to achieve a concentration of 3×10^5 cells/mL. Another cell count is performed to confirm the cell concentration. The cells are diluted to 3×10^4 cells/mL in DMEM+10% FBS+antibiotics, and 100 μL of cells are added to a 96-well plate. The cells are incubated at 37° C. for 22 h.
Prior to the completion of the incubation period, compound dilutions are prepared. Five-point, five-fold serial dilutions are prepared in DMSO, at concentrations 400-fold greater than the final concentrations desired. 2.5 μL of each compound dilution are diluted further in a total of 1 mL DMEM+10% FBS+antibiotics (400× dilution). Medium containing 0.25% DMSO is also prepared for the 0 μM compound sample. After 22-h, the medium is removed from the cells, and 100 μL of each compound dilution is added. The cells are incubated at 37° C. for 2-3 h.
During the compound pre-incubation period, the growth factors are diluted to the appropriate concentrations. Solutions of DMEM+10% FBS+antibiotics, containing either VEGF or bFGF at the following concentrations: 50, 10, 2, 0.4, 0.08, and 0 ng/mL are prepared. For the compound-treated cells, solutions of VEGF at 550 ng/mL or bFGF at 220 ng/mL for 50 ng/mL or 20 ng/mL final concentrations, respectively, are prepared since 10 μL of each will be added to the cells (110 μL final volume). At the appropriate time after adding the compounds, the growth factors are added. VEGF is added to one set of plates, while bFGF is added to another set of plates. For the growth factor control curves, the media on wells B4-G6 of plates 1 and 2 are replaced with media containing VEGF or bFGF at the varying concentrations (50-0 ng/mL). The cells are incubated at 37° C. for an additional 72 h.
At the completion of the 72 h incubation period, the medium is removed, and the cells are washed twice with PBS. After the second wash with PBS, the plates are tapped gently to remove excess PBS, and the cells are placed at −70° C. for at least 30 min. […] Raw data are collected and analyzed using a 4-parameter fit equation in XLFit. IC50 values are then determined.

Compound | IC50
COc1cc2nccc(Oc3ccc4oc(Nc5ccc(Cl)c(OC[C@@H]6CCCN6C)c5)nc4c3)c2cc1OC [Example 259, S-[4-Chloro-3-(1-methylpyrrolidin-2-ylmethoxy)-phenyl]-[5-(6,7-dimethoxyquinolin-4-yloxy)-benzoxazol-2-yl]-amine] | < 100 nM
COc1cc2ncnc(Oc3ccc4oc(Nc5ccc(Cl)c(OC[C@@H]6CCCN6C)c5)nc4c3)c2cc1OC [Example 263, S-[4-Chloro-3-(1-methyl-pyrrolidin-2-ylmethoxy)-phenyl]-[5-(6,7-dimethoxy-quinazolin-4-yloxy)-benzoxazol-2-yl]-amine] | < 100 nM
CN(C)C1CCN(Cc2cc(Nc3nc4cc(Oc5ccnc6[nH]ccc56)ccc4o3)ccc2Cl)C1 (stereo not shown) [Example 264, [4-Chloro-3-(3-dimethylamino-pyrrolidin-1-ylmethyl)-phenyl]-[5-(1H-pyrrolo[2,3-b]pyridin-4-yloxy)-benzoxazol-2-yl]-amine] | < 100 nM
CN1CCC(COc2cc(Nc3nc4cc(Oc5ccnc6[nH]ccc56)ccc4o3)ccc2Cl)CC1 [Example 265, [4-Chloro-3-(1-methyl-piperidin-4-ylmethoxy)-phenyl]-[5-(1H-pyrrolo[2,3-b]pyridin-4-yloxy)-benzoxazol-2-yl]-amine] | < 100 nM
